Experiments:
[1] = system: HBsAg secretion in Hep3B cells; design: method as in PMID 14517078; details: depletion of cellular cholesterol; cited from earlier work
HBV genotype C = test: ACC inhibitor efficacy study in HBV-infected chimeric humanized mice: serum viral markers; format: in vivo, human liver-chimeric uPA/SCID mice; details: 10 mg/kg oral once daily for four weeks, throughout the study
Experimental: (§1) For the ACC inhibitor efficacy study, HBV-infected mice were randomized into two different treatment groups based on body weight, blood h-Alb, and serum HBV DNA concentrations. All mice had blood h-Alb levels above 12 mg/mL and serum HBV DNA levels above 2.5x10^7 copies/mL. Mice received an oral dose of 10 mg/kg ACC inhibitor or dosing vehicle (vehicle control) once daily for 29 days. ACC inhibitor was dosed in 0.5% sodium carboxymethylcellulose (medium viscosity), 1% w/v ethanol, 98.5% w/v 50 mM Tris buffer, pH 8 in reverse osmosis water (or equivalent). Terminal livers were collected, weighed, and separated into pieces that were flash frozen in liquid nitrogen or immersed in RNAlater solution (Life Technologies, Carlsbad, CA).
(§2) Whole blood h-Alb was determined using (BioMajestyTM Series JCA-BM6050, JEOL Ltd., Tokyo, Japan). Serum human alanine aminotransferase (h-ALT1) concentration was determined based on Enzyme-Linked ImmunoSorbent Assay (ELISA) developed by Institute of Immunology Co., Ltd. (Tokyo, Japan). […] Serum HBsAg and HBeAg concentration were determined by SRL, Inc. (Tokyo, Japan) based on Chemiluminescent Enzyme Immuno Assay (CLEIA) developed by Fujirebio. […] RNA was isolated from RNAlater®-immersed liver samples with RNeasy kit following manufacturer’s instructions (Qiagen). qRT-PCR on the targeted genes was evaluated by Taqman (Assay IDs Hs04984975_m1 (SREBF1), Hs01682761_m1 (SCD), Hs01005622_m1 (FASN), Hs01046047_m1 (ACACA) and normalized to GAPDH endogenous control (Assay ID 4310884E).
(§3) Using the same batch of human hepatocytes and HBV virus used for the metabolomic and RNAseq analyses, mice (n = 7/group) were dosed orally eight weeks post HBV infection with vehicle or 10 mg/kg ACC inhibitor once daily for four weeks. HBV viral markers (HBsAg, HBeAg, and HBV DNA) and liver toxicity markers (ALT, h-Alb) were measured weekly (Fig 5A). On-target activity was evaluated by monitoring changes in triglycerides and liver mRNA expression levels of genes in the targeted pathway (Fig 5A).

[2] = system: HBV-infected HepG2-NTCP cells; test: Cell viability by CellTiter Glo; format: cell-based, human; details: three days of treatment
Experimental: (§4) Production of wild-type HBV virions from HepAD38 cells was performed as previously described. HepG2-NTCP cells were bulk plated on collagen coated flasks at a density of 6x10^6 cells/ T175 flask. Following a 3-day incubation at 37°C, cells were infected with genotype D (AD38) virus at […] in the presence of 4% PEG8000 and 2.5% DMSO. HepG2-NTCP cells were washed 3 times with OPTI-MEM and maintained in Dulbecco’s modified Eagle’s medium (DMEM) supplemented with 2% FBS and 2.5% DMSO for the following 4 days. HBV-infected HepG2-NTCP cells were trypsinized, resuspended in DMEM supplemented with 2% FBS and 1% DMSO, and seeded onto serially diluted small molecule inhibitors at a 0.5% final DMSO concentration (S1 Table) in 384-well collagen coated plates at a density of 20,000 cells/well for 3 additional days.
Cells were analyzed for cell viability by addition of CellTiter Glo (Promega) to the assay plates and analyzed using an Envision plate reader (Perkin Elmer). CC50 values were calculated from the fit of the dose−response curves to a four-parameter equation. All CC50 values represent geometric mean values of a minimum of four determinations.
(§5) (A) Schematic overview of the pathways involved in lipid biosynthesis, such as DNL, TG esterification and cholesterol biosynthesis. […] (B-D) HepG2-NTCP cells infected with HBV for three days were treated with selected compounds in an eight-point dose response. After three days of treatment, extracellular HBsAg and HBeAg levels as well as cell viability were measured.

[3] = two hours post dosing
Experimental: as §1, with “Terminal livers were collected, weighed, and separated into pieces that were flash frozen in liquid nitrogen or immersed in RNAlater solution (Life Technologies, Carlsbad, CA).” left out
as §2

ACC = test: On-target activity: serum and liver triglycerides and liver mRNA by qRT-PCR; format: in vivo, human liver-chimeric uPA/SCID mice; details: 10 mg/kg oral once daily, versus vehicle
Experimental: as §1
Whole blood h-Alb was determined using (BioMajestyTM Series JCA-BM6050, JEOL Ltd., Tokyo, Japan). Serum human alanine aminotransferase (h-ALT1) concentration was determined based on Enzyme-Linked ImmunoSorbent Assay (ELISA) developed by Institute of Immunology Co., Ltd. (Tokyo, Japan). The real-time detection PCR to measure the serum HBV DNA concentration was performed using the KUBIX HBV qPCR Kit (KUBIX Inc.) and CFX96 Touch™ Real-Time PCR Detection System. […] Serum HBsAg and HBeAg concentration were determined by SRL, Inc. (Tokyo, Japan) based on Chemiluminescent Enzyme Immuno Assay (CLEIA) developed by Fujirebio. Serum and intrahepatic triglycerides analysis were performed by Skylight Biotech Inc. (Akita, Japan). Terminal plasma and liver were collected 2-hours after ACC inhibitor dose for PK analysis which was performed by Charles River Laboratories (Wilmington, MA). RNA was isolated from RNAlater®-immersed liver samples with RNeasy kit following manufacturer’s instructions (Qiagen). qRT-PCR on the targeted genes was evaluated by Taqman (Assay IDs Hs04984975_m1 (SREBF1), Hs01682761_m1 (SCD), Hs01005622_m1 (FASN), Hs01046047_m1 (ACACA) and normalized to GAPDH endogenous control (Assay ID 4310884E).
as §3

[4] = format: in vivo, human liver-chimeric uPA/SCID mice; details: 10 mg/kg oral once daily for four weeks
Experimental: All animal work was performed by PhoenixBio Co, Ltd (Higashi-Hiroshima City, Japan). Detailed observations of general condition and individual body weights were conducted once daily throughout the in-life phase. All animal protocols were performed in accordance with the Guide for the Care and Use of Laboratory Animals and approved by the Animal Welfare Committee of Phoenix Bio Co., Ltd. All mice were housed individually and maintained in accordance with the Animal Ethics Committee of PhoenixBio (resolution #2518 and 2552). All surgery was performed under isoflurane anesthesia, and all efforts were made to minimize suffering. On Day 17, Animal ID No. 107 (vehicle-treated) was found dead.

DNL in HepG2 cells = system: DNL in HepG2 cells; design: method as in PMID 32376414, doi:10.1002/hep.31579; details: cited from earlier work
[5] = system: HBsAg secretion in HBV-infected HepG2-NTCP cells; test: microbe, parasite or virus in culture; format: cell-based, Hepatitis B virus genotype D (AD38); details: HBV-infected HepG2-NTCP cells
Experimental: as §4
(§6) Cell culture supernatant (3 μL) was transferred to two 1536-well plates and HBsAg and HBeAg levels subsequently measured by HTRF (Cisbio). HBsAg was measured using Terbium conjugated (XTL-17) and D2 receptor conjugated (XTL19) anti-HBsAg antibodies, while HBeAg was measured using Terbium conjugated (GWB-F19420, Genway Biotech) and D2 receptor conjugated (GWB-24DEF, Genway Biotech) anti-HBeAg antibodies. […] was measured using an Envision plate reader at emissions of 665 nm and 615 nm. The ratio of 665/615 was used to plot compound dose response curves and EC50 values were calculated from the fit of the dose−response curves to a four-parameter equation.
as §5

[6] = system: HBeAg in HBV-infected HepG2-NTCP cells; test: microbe, parasite or virus in culture; format: cell-based, Hepatitis B virus genotype D (AD38); details: HBV-infected HepG2-NTCP cells, three days of treatment, extracellular; read-out: HBeAg, EC50
Experimental: as §4, §6, §5

[7] = system: triglyceride accumulation in HepG2 cells; design: method as in PMID 32376414, doi:10.1002/hep.31579; details: read-out: palmitic acid-induced triglyceride accumulation EC50; cited from earlier work

Compound | HBsAg secretion [1] | reduction in serum HBV DNA levels (HBV genotype C) | reduction in serum HBeAg levels (HBV genotype C) | reduction in serum HBsAg levels (HBV genotype C) | CC50 [2] [nM] | Liver exposure over protein-adjusted EC50 (paEC50) ([3]; paEC50 based on HepG2-serum free-DNL assay) [fold] | Liver exposure ([3]; 10 mg/kg oral once daily, HBV-infected chimeric humanized mice) [nM] | increase in serum triglycerides (ACC; day 17 of treatment) [%] | reduction in liver triglycerides (ACC; day 29 of treatment) [%] | liver mRNA expression level of ACACA (ACC; qRT-PCR) | liver mRNA expression level of FASN (ACC; qRT-PCR) | liver mRNA expression level of SCD (ACC; qRT-PCR) | liver mRNA expression level of SREBF1 (ACC; qRT-PCR) | toxicity based on body weight change, serum ALT, and h-Alb levels [4] | EC50 (DNL in HepG2 cells) [nM] | selectivity HBsAg versus HBeAg [5] | inhibition of HBsAg secretion ([5]; maximal (up to)) | EC50 ([5]; three days of treatment, extracellular, read-out: HBsAg, EC50) [nM] | EC50 [6] [nM] | EC50 [7] [nM]
CC[C@H](C)C(=O)O[C@H]1C[C@@H](C)C=C2C=C[C@H](C)[C@H](CC[C@@H]3C[C@@H](O)CC(=O)O3)[C@H]21 [lovastatin] | significantly reduced |  |  |  |  |  |  |  |  |  |  |  |  |  |  |  |  |  |  | 
COc1ccccc1[C@H](Cn1c(=O)n(C(C)(C)C(=O)O)c(=O)c2c(C)c(-c3ncco3)sc21)O[C@H]1CC[C@@H](O)CC1 [ACC inhibitor, 2-(1-((R)-2-(((1s,4S)-4-hydroxycyclohexyl)oxy)-2-(2-methoxyphenyl)ethyl)-5-methyl-6-(oxazol-2-yl)-2,4-dioxo-1,4-dihydrothieno[2,3-d]pyrimidin-3(2H)-yl)-2-methylpropanoic acid] |  | no reduction | no reduction | no reduction | > 10000 | 4.5 | 740 | 30 | 40 | statistically significant increase | statistically significant increase | statistically significant increase | increased with ACC treatment albeit did not reach statistical significance | no evidence of toxicity | 6.6 | inhibition of HBeAg but at a higher concentration than HBsAg | up to 80% | 29 | 9600 | 23

From publication PMC9352027, “Targeting lipid biosynthesis pathways for hepatitis B virus cure” (PLoS ONE, 2022)
